#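 Step 1: Grow cells in 96-well plates. Step 2: Expose to compound for 48 hours at 5 concentrations. Step 3: Interpolate endpoints linearly; if unreached, use highest concentration. At the GI50, growth is halved. TGI: concentration producing complete growth inhibition.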
# How the values were obtained:
# Experiment in all cases: inhibition of tumour cell growth, NCI panel, 48 h
# [1] = system: MDA-MB-435
# [2] = system: SNB-75 CNS
# [3] = system: K-562 leukemia
# [4] = system: CAKI-1 renal
# [5] = system: MOLT-4 leukemia
# [6] = system: PC-3 prostate
# [7] = system: KM12 colon
# [8] = system: IGROV1 ovarian
# [9] = system: NCI-H226 lung
# [10] = system: SR leukemia
# [11] = system: SK-OV-3 ovarian
# [12] = system: SF-295 CNS
# [13] = system: UACC-257 melanoma
# [14] = system: SK-MEL-2 melanoma
# [15] = system: HCT-116 colon
# [16] = system: SF-539 CNS
# [17] = system: M14 melanoma
# [18] = system: HOP-62 NSCLC
# [19] = system: SK-MEL-28 melanoma
# [20] = system: RXF 393 renal
# [21] = system: SNB-19 CNS
# [22] = system: COLO 205 colon
# [23] = system: HT29 colon
# [24] = system: HOP-92 NSCLC
# [25] = system: UO-31 renal
# [26] = system: MCF7 breast
# [27] = system: MDA-MB-231 breast
# [28] = system: HL-60(TB) leukemia
# [29] = system: NCI-H522 lung
smiles,measurement,setting,value
O=C(CC1(O)C(=O)N(Cc2ccccc2)c2ccccc21)c1ccc(C(=O)NCC2CCC3(CC2)OOC2(CCCCC2)OO3)cc1 (stereo not drawn),GI50,[1],0.875 µM
same,TGI,[1],2.45 µM
same,GI50,[2],1.58 µM
same,TGI,[2],3.44 µM
same,GI50,[3],1.72 µM
same,TGI,[3],4.83 µM
same,GI50,[4],0.577 µM
same,TGI,[4],1.14 µM
same,GI50,[5],1.89 µM
same,TGI,[5],4.61 µM
same,GI50,[6],1.58 µM
same,TGI,[6],4.91 µM
same,GI50,[7],0.988 µM
same,TGI,[7],2.58 µM
same,GI50,[8],0.408 µM
same,TGI,[8],1.62 µM
same,GI50,[9],3.5 µM
same,TGI,[9],10.8 µM
same,GI50,[10],0.344 µM
same,TGI,[10],1.66 µM
same,GI50,[11],6.57 µM
same,TGI,[11],> 51.1 µM
same,GI50,[12],1.3 µM
same,TGI,[12],5.11 µM
same,GI50,[13],5.01 µM
same,TGI,[13],22.9 µM
same,GI50,[14],2.28 µM
same,TGI,[14],5.24 µM
same,GI50,[15],2.29 µM
same,TGI,[15],6.13 µM
same,GI50,[16],0.399 µM
same,TGI,[16],1.04 µM
same,GI50,[17],2.48 µM
same,TGI,[17],7.26 µM
same,GI50,[18],0.273 µM
same,TGI,[18],0.86 µM
same,GI50,[19],4.96 µM
same,TGI,[19],26.8 µM
same,GI50,[20],0.705 µM
same,TGI,[20],1.98 µM
same,GI50,[21],4.67 µM
same,TGI,[21],51.8 µM
same,GI50,[22],1.93 µM
same,TGI,[22],4.51 µM
same,GI50,[23],1.72 µM
same,TGI,[23],3.82 µM
same,GI50,[24],0.184 µM
same,TGI,[24],0.434 µM
same,GI50,[25],0.176 µM
same,TGI,[25],0.338 µM
same,GI50,[26],2.43 µM
same,TGI,[26],10.5 µM
same,GI50,[27],1.15 µM
same,TGI,[27],2.95 µM
same,GI50,[28],0.539 µM
same,TGI,[28],2.09 µM
same,GI50,[29],0.24 µM
same,TGI,[29],0.73 µM
